# Assay results as given in patent US11173137B2, “Compositions and methods to modulate chloride ion channel activity” (The Board of Trustees of the Leland Stanford Junior …, priority 2018, dated 2021).
# Like-named read-outs stand apart in the source and are kept apart here.
# Legend:
# [1] = target: 5-HT1E (Homo sapiens (Human), UniProt P28566); assay: PDSP primary binding assay; conditions: primary binding assay at 10 μM
# Description: (§1) Two exemplary compounds, FA44 and FA26, were screened against a panel of CNS receptors, transporters, and ion channels to examine specificity for CLC-2 in the brain. A comprehensive primary binding assay screen was performed through the NIH Psychoactive Drug Screening Program (PDSP) at UNC-Chapel Hill. Secondary or functional assays were performed for compounds showing >50% activity in the primary assay.
# [2] = target: Sigma 1 (Homo sapiens (Human), UniProt Q99720); assay: PDSP primary binding assay; conditions: primary binding assay at 10 μM
# Chain of Sigma 1 (Q99720 whole entry): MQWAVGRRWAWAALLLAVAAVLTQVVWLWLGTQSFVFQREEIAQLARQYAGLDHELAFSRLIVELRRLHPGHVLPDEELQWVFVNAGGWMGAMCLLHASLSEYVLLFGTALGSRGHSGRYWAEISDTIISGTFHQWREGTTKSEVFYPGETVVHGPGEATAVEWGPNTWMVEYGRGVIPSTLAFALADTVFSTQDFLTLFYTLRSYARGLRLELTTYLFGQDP
# Description: as §1
# [3] = target: Beta2 (Homo sapiens (Human), UniProt P07550); assay: PDSP primary binding assay; conditions: primary binding assay at 10 μM
# Description: as §1
# [4] = target: D5 (Homo sapiens (Human), UniProt P21918); assay: PDSP primary binding assay; conditions: primary binding assay at 10 μM
# Chain of D5 (P21918 whole entry): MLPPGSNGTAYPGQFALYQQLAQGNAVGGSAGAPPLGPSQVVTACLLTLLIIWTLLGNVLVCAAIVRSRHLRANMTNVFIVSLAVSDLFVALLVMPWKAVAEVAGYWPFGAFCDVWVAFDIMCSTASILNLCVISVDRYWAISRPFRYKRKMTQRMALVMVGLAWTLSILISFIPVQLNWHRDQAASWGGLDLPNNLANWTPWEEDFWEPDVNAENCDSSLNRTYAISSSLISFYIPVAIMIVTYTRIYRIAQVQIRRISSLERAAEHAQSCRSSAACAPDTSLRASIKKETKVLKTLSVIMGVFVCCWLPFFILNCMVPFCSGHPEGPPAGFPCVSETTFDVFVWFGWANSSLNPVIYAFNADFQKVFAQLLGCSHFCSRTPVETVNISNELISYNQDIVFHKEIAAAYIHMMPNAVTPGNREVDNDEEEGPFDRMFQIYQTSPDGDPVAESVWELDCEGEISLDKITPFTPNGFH
# Description: as §1
# [5] = test system: GABAA; assay: PDSP primary binding assay; conditions: primary binding assay at 10 μM
# Description: as §1
# [6] = target: H3 (Homo sapiens (Human), UniProt Q9Y5N1); assay: PDSP primary binding assay; conditions: primary binding assay at 10 μM
# Description: as §1
# [7] = target: DOR (Homo sapiens (Human), UniProt P41143); assay: PDSP primary binding assay; conditions: primary binding assay at 10 μM
# Chain of DOR (P41143 whole entry): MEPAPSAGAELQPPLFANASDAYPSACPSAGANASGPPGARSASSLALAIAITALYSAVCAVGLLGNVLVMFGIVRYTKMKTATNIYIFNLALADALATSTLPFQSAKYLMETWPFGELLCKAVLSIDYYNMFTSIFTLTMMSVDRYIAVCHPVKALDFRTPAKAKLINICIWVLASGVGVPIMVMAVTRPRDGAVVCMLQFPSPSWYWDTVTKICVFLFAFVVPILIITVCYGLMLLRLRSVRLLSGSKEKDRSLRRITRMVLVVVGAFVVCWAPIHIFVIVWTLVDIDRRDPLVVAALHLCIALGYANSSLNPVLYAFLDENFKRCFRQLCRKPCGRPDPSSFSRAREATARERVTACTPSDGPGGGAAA
# Description: as §1
# [8] = test system: NMDA; assay: PDSP primary binding assay; conditions: primary binding assay at 10 μM
# Description: as §1
# [9] = target: PBR (Homo sapiens (Human), UniProt P30536); assay: PDSP primary binding assay; conditions: primary binding assay at 10 μM
# Chain of PBR (P30536 whole entry, species assumed): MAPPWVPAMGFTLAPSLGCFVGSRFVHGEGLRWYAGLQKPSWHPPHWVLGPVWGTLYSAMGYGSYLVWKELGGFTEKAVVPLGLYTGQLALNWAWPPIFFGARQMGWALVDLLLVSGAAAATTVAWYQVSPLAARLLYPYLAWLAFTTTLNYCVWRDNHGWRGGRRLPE
# Description: as §1
# [10] = target: Oxytocin (Homo sapiens (Human), UniProt P30559); assay: PDSP primary binding assay; conditions: primary binding assay at 10 μM
# Description: as §1
# [11] = target: 5-HT3 (Homo sapiens (Human), UniProt P46098); assay: PDSP primary binding assay; conditions: primary binding assay at 10 μM
# Chain of 5-HT3 (P46098 24-478, species assumed): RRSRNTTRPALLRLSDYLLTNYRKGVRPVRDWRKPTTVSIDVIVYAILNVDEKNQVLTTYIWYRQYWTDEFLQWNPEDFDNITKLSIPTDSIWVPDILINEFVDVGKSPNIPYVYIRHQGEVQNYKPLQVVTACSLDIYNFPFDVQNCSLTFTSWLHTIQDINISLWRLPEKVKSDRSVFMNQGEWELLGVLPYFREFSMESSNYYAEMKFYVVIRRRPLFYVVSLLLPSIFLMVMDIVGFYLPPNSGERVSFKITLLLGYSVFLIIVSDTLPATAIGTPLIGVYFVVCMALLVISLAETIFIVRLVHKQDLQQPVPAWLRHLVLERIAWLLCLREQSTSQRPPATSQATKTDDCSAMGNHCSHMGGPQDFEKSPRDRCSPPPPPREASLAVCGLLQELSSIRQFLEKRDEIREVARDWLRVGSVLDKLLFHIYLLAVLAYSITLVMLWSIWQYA
# Description: as §1
# [12] = target: Alpha1A (Homo sapiens (Human), UniProt P35348); assay: PDSP primary binding assay; conditions: primary binding assay at 10 μM
# Description: as §1
# [13] = target: D3 (Homo sapiens (Human), UniProt P35462); assay: PDSP primary binding assay; conditions: primary binding assay at 10 μM
# Description: as §1
# [14] = target: 5-HT7 (Homo sapiens (Human), UniProt P34969); assay: PDSP primary binding assay; conditions: primary binding assay at 10 μM
# Description: as §1
# [15] = target: 5-HT5A (Homo sapiens (Human), UniProt P47898); assay: PDSP primary binding assay; conditions: primary binding assay at 10 μM
# Description: as §1
# [16] = target: 5-HT2C (Homo sapiens (Human), UniProt P28335); assay: PDSP primary binding assay; conditions: primary binding assay at 10 μM
# Description: as §1
# [17] = target: 5-HT1D (Homo sapiens (Human), UniProt P28221); assay: PDSP primary binding assay; conditions: primary binding assay at 10 μM
# Description: as §1
# [18] = target: D2 (Homo sapiens (Human), UniProt P14416); assay: PDSP primary binding assay; conditions: primary binding assay at 10 μM
# Description: as §1
# [19] = test system: BZP rat brain site; assay: PDSP primary binding assay; conditions: primary binding assay at 10 μM
# Description: as §1
# [20] = test system: KA; assay: PDSP primary binding assay; conditions: primary binding assay at 10 μM
# Description: as §1
# [21] = target: NET (Homo sapiens (Human), UniProt P23975); assay: PDSP primary binding assay; conditions: primary binding assay at 10 μM
# Description: as §1
# [22] = target: 5-HT1B (Homo sapiens (Human), UniProt P28222); assay: PDSP primary binding assay; conditions: primary binding assay at 10 μM
# Description: as §1
# [23] = target: Alpha1D (Homo sapiens (Human), UniProt P25100); assay: PDSP primary binding assay; conditions: primary binding assay at 10 μM
# Description: as §1
# [24] = target: Beta3 (Homo sapiens (Human), UniProt P13945); assay: PDSP primary binding assay; conditions: primary binding assay at 10 μM
# Description: as §1
# [25] = target: D4 (Homo sapiens (Human), UniProt P21917); assay: PDSP primary binding assay; conditions: primary binding assay at 10 μM
# Description: as §1
# [26] = target: Alpha2B (Homo sapiens (Human), UniProt P18089); assay: PDSP primary binding assay; conditions: primary binding assay at 10 μM
# Description: as §1
# [27] = target: H1 (Homo sapiens (Human), UniProt P35367); assay: PDSP primary binding assay; conditions: primary binding assay at 10 μM
# Description: as §1
# [28] = test system: AMPA; assay: PDSP primary binding assay; conditions: primary binding assay at 10 μM
# Description: as §1
# [29] = target: H2 (Homo sapiens (Human), UniProt P25021); assay: PDSP primary binding assay; conditions: primary binding assay at 10 μM
# Description: as §1
# [30] = target: D1 (Homo sapiens (Human), UniProt P21728); assay: PDSP primary binding assay; conditions: primary binding assay at 10 μM
# Description: as §1
# [31] = target: H4 (Homo sapiens (Human), UniProt Q9H3N8); assay: PDSP primary binding assay; conditions: primary binding assay at 10 μM
# Chain of H4 (Q9H3N8 whole entry): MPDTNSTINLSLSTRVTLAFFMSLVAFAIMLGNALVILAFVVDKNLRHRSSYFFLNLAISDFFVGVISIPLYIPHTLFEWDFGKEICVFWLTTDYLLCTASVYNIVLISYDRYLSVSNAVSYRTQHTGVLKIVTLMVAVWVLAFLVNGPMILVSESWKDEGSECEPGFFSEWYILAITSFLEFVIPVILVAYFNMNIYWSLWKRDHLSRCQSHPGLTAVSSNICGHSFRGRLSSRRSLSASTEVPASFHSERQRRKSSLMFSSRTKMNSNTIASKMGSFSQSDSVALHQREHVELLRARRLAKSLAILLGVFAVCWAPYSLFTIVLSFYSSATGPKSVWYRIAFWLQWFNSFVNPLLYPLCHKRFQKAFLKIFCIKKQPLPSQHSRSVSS
# Description: as §1
# [32] = target: MOR (Homo sapiens (Human), UniProt P35372); assay: PDSP primary binding assay; conditions: primary binding assay at 10 μM
# Chain of MOR (P35372 whole entry): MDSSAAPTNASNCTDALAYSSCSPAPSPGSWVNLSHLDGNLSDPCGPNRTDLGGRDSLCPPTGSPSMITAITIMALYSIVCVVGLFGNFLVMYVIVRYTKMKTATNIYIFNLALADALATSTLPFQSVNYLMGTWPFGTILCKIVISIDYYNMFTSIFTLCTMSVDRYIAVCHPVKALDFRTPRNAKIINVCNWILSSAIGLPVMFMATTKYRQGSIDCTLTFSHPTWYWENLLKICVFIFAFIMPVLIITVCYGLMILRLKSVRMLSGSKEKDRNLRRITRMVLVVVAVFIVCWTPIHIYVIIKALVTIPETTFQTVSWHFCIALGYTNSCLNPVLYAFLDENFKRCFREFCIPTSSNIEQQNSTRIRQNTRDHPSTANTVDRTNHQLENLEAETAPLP
# Description: as §1
# [33] = target: NOP (Homo sapiens (Human), UniProt P41146); assay: PDSP primary binding assay; conditions: primary binding assay at 10 μM
# Chain of NOP (P41146 whole entry): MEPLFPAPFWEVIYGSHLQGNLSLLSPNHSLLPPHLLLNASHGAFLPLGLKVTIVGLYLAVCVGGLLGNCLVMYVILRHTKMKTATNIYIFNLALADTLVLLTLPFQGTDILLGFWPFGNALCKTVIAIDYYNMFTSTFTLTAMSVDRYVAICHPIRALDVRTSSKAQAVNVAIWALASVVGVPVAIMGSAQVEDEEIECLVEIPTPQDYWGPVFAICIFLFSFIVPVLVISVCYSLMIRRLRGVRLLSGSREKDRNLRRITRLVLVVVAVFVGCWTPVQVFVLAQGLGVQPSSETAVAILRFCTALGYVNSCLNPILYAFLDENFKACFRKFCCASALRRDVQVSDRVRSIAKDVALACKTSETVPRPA
# Description: as §1
# [34] = target: Sigma 2 (Homo sapiens (Human), UniProt Q5BJF2); assay: PDSP primary binding assay; conditions: primary binding assay at 10 μM
# Chain of Sigma 2 (Q5BJF2 whole entry): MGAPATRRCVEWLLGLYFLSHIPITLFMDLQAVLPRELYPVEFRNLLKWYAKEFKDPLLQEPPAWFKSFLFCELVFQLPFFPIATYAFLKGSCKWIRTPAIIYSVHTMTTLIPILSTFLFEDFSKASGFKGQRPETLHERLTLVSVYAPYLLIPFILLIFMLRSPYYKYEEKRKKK
# Description: as §1
# [35] = target: mGluR1 (Homo sapiens (Human), UniProt Q13255); assay: PDSP functional assay; format: biochemical; conditions: only a functional assay was performed
# Description: as §1
# [36] = target: CLC-2 (Homo sapiens (Human), UniProt P51788); assay: IonWorks Barracuda automated patch-clamp electrophysiology, human CLC-2 cell line; format: cell-based; conditions: for times greater potency towards CLC-2 compared to CLC-1: CLC-2 versus CLC-1
# Chain of CLC-2 (P51788 whole entry): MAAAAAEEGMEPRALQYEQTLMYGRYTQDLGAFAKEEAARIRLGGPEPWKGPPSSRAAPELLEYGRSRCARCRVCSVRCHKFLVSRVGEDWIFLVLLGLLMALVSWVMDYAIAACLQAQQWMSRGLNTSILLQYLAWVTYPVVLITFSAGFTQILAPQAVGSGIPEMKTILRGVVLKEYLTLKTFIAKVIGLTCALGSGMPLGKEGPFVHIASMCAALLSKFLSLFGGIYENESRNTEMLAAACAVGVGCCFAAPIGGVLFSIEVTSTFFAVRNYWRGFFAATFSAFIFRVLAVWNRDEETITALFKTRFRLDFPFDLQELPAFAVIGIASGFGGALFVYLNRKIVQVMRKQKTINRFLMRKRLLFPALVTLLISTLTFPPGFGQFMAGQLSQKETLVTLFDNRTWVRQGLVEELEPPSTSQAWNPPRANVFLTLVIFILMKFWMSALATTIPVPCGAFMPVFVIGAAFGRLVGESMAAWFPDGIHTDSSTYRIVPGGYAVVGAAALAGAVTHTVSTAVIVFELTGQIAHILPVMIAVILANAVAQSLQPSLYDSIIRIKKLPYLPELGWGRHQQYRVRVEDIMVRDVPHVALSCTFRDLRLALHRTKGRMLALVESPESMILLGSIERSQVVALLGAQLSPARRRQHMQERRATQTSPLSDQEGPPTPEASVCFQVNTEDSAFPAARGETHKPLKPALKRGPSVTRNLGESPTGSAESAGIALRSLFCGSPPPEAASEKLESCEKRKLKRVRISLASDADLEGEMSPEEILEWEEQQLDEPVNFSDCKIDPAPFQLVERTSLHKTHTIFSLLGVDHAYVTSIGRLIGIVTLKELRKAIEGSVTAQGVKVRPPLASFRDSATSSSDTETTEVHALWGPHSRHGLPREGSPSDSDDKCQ
# Source text: FIG. 8, panels A and B depict graphically the Selectivity between CLC-1 and CLC-2. […]
# [37] = target: CLC-1 (Homo sapiens (Human), UniProt P35523); assay: IonWorks Barracuda automated patch-clamp electrophysiology, CLC-1; format: cell-based
# Chain of CLC-1 (P35523 whole entry): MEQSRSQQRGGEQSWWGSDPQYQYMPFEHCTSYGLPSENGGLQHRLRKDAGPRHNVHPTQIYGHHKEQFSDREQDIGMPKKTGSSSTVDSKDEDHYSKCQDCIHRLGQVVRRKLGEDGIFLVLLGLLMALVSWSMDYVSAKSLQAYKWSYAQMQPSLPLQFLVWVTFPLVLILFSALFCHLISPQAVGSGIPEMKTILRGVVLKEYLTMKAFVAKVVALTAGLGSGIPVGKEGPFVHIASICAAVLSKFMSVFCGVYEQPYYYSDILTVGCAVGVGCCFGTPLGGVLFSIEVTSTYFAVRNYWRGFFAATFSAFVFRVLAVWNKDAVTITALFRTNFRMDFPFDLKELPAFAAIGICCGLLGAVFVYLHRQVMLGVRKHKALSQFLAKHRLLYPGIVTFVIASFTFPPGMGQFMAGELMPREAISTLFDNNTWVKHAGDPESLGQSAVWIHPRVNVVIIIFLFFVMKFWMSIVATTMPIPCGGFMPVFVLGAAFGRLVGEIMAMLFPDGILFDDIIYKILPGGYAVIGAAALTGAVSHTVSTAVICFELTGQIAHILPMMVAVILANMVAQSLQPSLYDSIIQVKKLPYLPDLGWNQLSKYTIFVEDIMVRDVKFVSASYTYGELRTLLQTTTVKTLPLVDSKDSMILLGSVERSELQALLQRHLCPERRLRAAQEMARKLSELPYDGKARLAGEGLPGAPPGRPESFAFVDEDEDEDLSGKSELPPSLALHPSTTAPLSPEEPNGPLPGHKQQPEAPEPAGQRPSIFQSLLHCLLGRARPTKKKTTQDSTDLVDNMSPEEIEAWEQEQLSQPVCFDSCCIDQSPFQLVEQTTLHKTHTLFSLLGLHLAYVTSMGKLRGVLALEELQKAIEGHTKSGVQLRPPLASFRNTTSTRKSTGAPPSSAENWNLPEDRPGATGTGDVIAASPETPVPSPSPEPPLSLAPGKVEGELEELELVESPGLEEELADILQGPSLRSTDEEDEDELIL
# Description: If the IC50 was greater than the highest concentration tested, this concentration is listed along with the percent inhibition at this concentration (in parenthesis).
# FIG. 8, panels A and B depict graphically the Selectivity between CLC-1 and CLC-2. […] Data points represent the mean current block at 16 different FA44 concentrations (n=4-8), using the IonWorks™ Barracuda. […] Panel B depicts a summary graph showing the mean inhibition of CLC-1 (left bar) or CLC-2 (right bar) current at 30 μM, illustrating the improvement in both selectivity and potency from the hit compound MCFA to the exemplary compound FA44.
structure (smiles),measurement,setting,value
O=C(O)c1cccnc1Nc1c(Cl)ccc(OCc2ccccc2)c1Cl [AK3-238],% (10 μM),[1],10.43%
same,% (10 μM),[2],38.52%
same,% (10 μM),[3],4.77%
same,% (10 μM),[4],31.58%
same,% (10 μM),[5],−4.29%
same,% (10 μM),[6],−0.92%
same,% (10 μM),[7],16.59%
same,% (10 μM),[8],24.18%
same,% (10 μM),[9],8.22%
same,% (10 μM),[10],−1.41%
same,% (10 μM),[11],28.75%
same,% (10 μM),[12],12.29%
same,% (10 μM),[13],−4.66%
same,% (10 μM),[14],17.51%
same,% (10 μM),[15],28.19%
same,% (10 μM),[16],−13.39%
same,% (10 μM),[17],44.06%
same,% (10 μM),[18],7.69%
same,% (10 μM),[19],29.32%
same,% (10 μM),[20],36.60%
same,% (10 μM),[21],17.36%
same,% (10 μM),[22],49.89%
same,% (10 μM),[23],−10.12%
same,% (10 μM),[24],24.76%
same,% (10 μM),[25],−0.65%
same,% (10 μM),[26],−28.62%
same,% (10 μM),[27],15.48%
same,% (10 μM),[28],28.20%
same,% (10 μM),[29],5.35%
same,% (10 μM),[30],−9.96%
same,% (10 μM),[31],2.23%
same,% (10 μM),[32],−0.18%
same,% (10 μM),[33],21.14%
same,% (10 μM),[34],−8.14%
same,Ki,[35],> 10000 nM
same,% inhibition at the concentration listed (in parenthesis),"[36]; CLC-2, at the concentration listed in the IC50 cell, negative = increase in peak current",(90%)
same,times greater potency towards CLC-2 compared to CLC-1,[36],"approximately 10,000 times"
same,times greater potency towards CLC-2 compared to CLC-1,[36]; listed as FA44,"10,000 times"
same,selectivity CLC-2 over CLC-1,[36]; FIG. 8 panel A,selective for CLC-2 over CLC-1
same,IC50,"[36]; Table 2 / FIG. 8, 16 concentrations, n=4-8, −120 mV, read-out: IC50 (CLC-2)",0.017 ± 0.002 µM
same,IC50,"[36]; n = 4 cells, four concentrations of each compound, IonWorks Barracuda, read-out: IC50 (μM) against CLC-2",< 0.12 µM
same,IC50,[37]; Table 2,> 100000 nM
same,percent inhibition of CLC-1 at highest concentration tested (in parenthesis),[37]; at the concentration listed in the same cell,22%
